These results are taken from US20150225404A1, “PYRIDINE DERIVATIVE AND MEDICINE” (NIPPON SHINYAKU CO., LTD., priority 2012, published 2015).

Usually IC50 stands for the concentration that gives 50% inhibition. Lower therefore signals inhibition by little substance.

Structures are written as SMILES. Where a name gives a salt, the structure may show the parent alone. Read-outs that look alike come from different tables or passages of the source.

Assay [1] deals with male Slc:ICR mice. Put plainly: Action against pain-related behavior and micturition cycle in mice with cyclophosphamide (CP)-induced acute cystitis. The note with it: Mus musculus, iv, 0.25 h, CP 300 mg/kg i.p., 15 minutes observation; for inhibition in vivo at 3 mg/kg: test substance 3 mg/kg intravenously 3 hours after CP; for inhibition in vivo at 1 mg/kg: test substance 1 mg/kg intravenously 3 hours after CP. In kind it is in vivo. As for the experimental part: An action of a test substance against visceral pain and frequent urination associated with cystitis, which was induced by intraperitoneal administration (20 mL/kg) of CP (300 mg/kg) to 4 to 5-week-old male Slc:ICR mice (available from Japan SLC, Inc.), was investigated. This experiment was performed according to a method described in European Journal of Pharmacology, 676 (2012), pp. 75-80.
Three hours after the administration of CP, a test substance (1 mg/kg or 3 mg/kg) was intravenously administered, and observation by visual inspection and video recording were performed for 15 minutes immediately thereafter. In the observation by visual inspection, four pain-related behaviors (eye opening, rounded back, leg dragging, and behavior during urination) were scored, each rated on a scale of 0-10, according to the following criteria.
Eye opening (normal: 0 point, sometimes closed or half-open eyes: 5 points, completely closed: 10 points)
Rounded back (normal: 0 point, sometimes crouched: 5 points, crouched at almost all times: 10 points)
Leg dragging (normal: 0 point, leg dragging: 10 points)
Behavior during urination (normal: 0 point, shaking hip in micturition: 10 points)
In addition, the video was played back, and the frequency of licking behavior around the abdomen as a pain-related behavior was scored, rated on a scale of 0-10, according to the following criteria.
Licking behavior around the abdomen (0 to 3 times: 0 point, 4 times to 10 times: 5 points, 11 times or more: 10 points)
Furthermore, the video was played back, and the frequency of urination (urination marks) on a filter paper was counted and taken as an index for micturition cycle.
An average value of the pain-related behavior score of each group (total score of the five items: 50 points at maximum) and an average value of the frequency of urination (urination marks) on the filter paper were determined.
The strength of an analgesic action of the test substance against the CP-induced visceral pain was evaluated in terms of percent inhibition (%) of pain-related behavior score which is calculated as {(A−B)/A×100}, wherein A is an average value of the pain-related behavior score of a medium-administered group, and B is an average value of the pain-related behavior score of a test substance-administered group.
In addition, the strength of a frequent urination inhibitory action of the test substance against the CP-induced frequent urination was evaluated in terms of percent inhibition (%) of the frequency of urination which is calculated as {(C−D)/C×100}, wherein C is an average value of the frequency of urination of a medium-administered group, and D is an average value of the frequency of urination of a test substance-administered group.

A further assay concerns the target T1, human mGluR5 (Homo sapiens, UniProt P41594).
T1 construct: expressed in transfected cells
In words: Experiment for receptor function of mGluR5 (Ca2+-dependent fluorescence, FLIPR, CHO-K1 cells stably expressing human mGluR5). Format: cell-based. The note with it: L-glutamic acid 10 μM, Fluo-4 fluorescence. The gist of the method: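 Fluo-4-loaded CHO-K1 cells pre-incubated 2 min with test substance, then stimulated with L-glutamic acid (final 10 μM) in HBSS, pH 7.4. FLIPR Ca2+ fluorescence normalized to glutamate alone (100%) and glutamate with 10 μM MPEP (0%); IC50 estimated by logistic fit.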

Assay [2] concerns male Slc:ICR mice. Put plainly: Action against formalin-induced pain behavior in mice. Format: in vivo. The note with it: Mus musculus, iv, 0.1 h, test substance 1 mg/kg intravenously, 6 minutes observation, read-out: Percent inhibition of pain-related behavior time (%). As for the experimental part:
4 to 6-week-old male Slc:ICR mice (available from Japan SLC, Inc.) were used. A medium or a test substance (1 mg/kg or 3 mg/kg) was intravenously administered to each mouse, and immediately thereafter, 20 μL of 1% or 5% formalin was subcutaneously administered to a right hind paw of the mouse. Thereafter, the mice were quickly put into an observation cage and measured for the total time (sec) of pain-related behavior (licking or biting behavior against the right hindlimb) during 6 minutes, and an average value of the pain-related behavior time of each group was calculated.
The intensity of an analgesic action of the test substance was evaluated in terms of percent inhibition (%) of pain-related behavior time which is calculated as {(A−B)/A×100}, wherein A is an average value of the pain-related behavior time of a medium-administered group, and B is an average value of the pain-related behavior time of a test substance-administered group.

Setting [3] is: read-out: Percent inhibition of pain-related behavior score (%).
Where [4] appears, read: read-out: Percent inhibition of the frequency of urination (%).

T1 sequence (P41594 21-1212): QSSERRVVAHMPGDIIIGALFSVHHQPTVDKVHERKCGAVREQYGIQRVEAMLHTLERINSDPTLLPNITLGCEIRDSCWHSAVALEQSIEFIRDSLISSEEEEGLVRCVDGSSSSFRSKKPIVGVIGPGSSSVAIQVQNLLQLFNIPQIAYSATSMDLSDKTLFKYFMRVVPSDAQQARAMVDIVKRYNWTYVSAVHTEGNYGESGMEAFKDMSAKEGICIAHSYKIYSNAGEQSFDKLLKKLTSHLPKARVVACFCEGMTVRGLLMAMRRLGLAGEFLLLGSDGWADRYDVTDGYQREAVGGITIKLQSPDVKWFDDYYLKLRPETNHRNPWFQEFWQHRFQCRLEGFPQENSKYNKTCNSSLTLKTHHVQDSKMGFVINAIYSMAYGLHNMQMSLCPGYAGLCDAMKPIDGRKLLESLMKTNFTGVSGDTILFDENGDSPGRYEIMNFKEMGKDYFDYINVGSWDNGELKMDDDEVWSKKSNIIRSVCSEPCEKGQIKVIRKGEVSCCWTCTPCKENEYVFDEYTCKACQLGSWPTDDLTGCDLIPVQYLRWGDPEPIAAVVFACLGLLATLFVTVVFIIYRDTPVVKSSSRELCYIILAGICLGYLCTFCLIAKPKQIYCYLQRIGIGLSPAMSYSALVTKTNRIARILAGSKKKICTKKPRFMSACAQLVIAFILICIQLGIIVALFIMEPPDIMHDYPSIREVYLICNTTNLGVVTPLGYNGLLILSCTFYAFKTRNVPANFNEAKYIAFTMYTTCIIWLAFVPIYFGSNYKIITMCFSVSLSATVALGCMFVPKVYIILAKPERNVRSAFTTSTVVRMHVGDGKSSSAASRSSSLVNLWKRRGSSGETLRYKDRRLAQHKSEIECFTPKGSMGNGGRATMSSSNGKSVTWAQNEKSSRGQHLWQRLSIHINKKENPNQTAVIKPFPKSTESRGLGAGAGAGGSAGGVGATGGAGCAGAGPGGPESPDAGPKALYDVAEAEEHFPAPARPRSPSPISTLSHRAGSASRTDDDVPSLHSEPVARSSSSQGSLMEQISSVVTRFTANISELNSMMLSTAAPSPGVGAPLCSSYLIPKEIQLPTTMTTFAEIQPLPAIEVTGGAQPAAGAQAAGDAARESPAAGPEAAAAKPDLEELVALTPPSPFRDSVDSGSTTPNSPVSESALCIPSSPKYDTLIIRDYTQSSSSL

Take `N#Cc1nccnc1-c1cc(OCc2ccccn2)nc2c1CCCC2` [Example 198, 3-[2-(Pyridin-2-ylmethoxy)-5,6,7,8-tetrahydroquinolin-4-yl]pyrazine-2-carbonitrile hydrochloride]: the inhibition in vivo at 3 mg/kg in the assay with male Slc:ICR mice [1] (setting [3]) is 40.4%; with male Slc:ICR mice [1] (setting [4]), 37.6%. For the same compound, the IC50 at human mGluR5 turned out to be 56.3 nM. Besides, the inhibition in vivo at 1 mg/kg in the assay with male Slc:ICR mice [2] (1% formalin) stood at 24.7%.
Consider `OCc1cncc(-c2cc(OCc3ccc(F)cn3)nc3c2CCCC3)n1` [Example 216, (6-{2-[(5-Fluoropyridin-2-yl)methoxy]-5,6,7,8-tetrahydroquinolin-4-yl}pyrazin-2-yl)methanol], for which the inhibition in vivo at 3 mg/kg in the assay with male Slc:ICR mice [1] (setting [3]) worked out at 28.2%; with male Slc:ICR mice [1] (setting [4]), 30.1%. Moreover, in the assay with male Slc:ICR mice [2] (5% formalin), the inhibition in vivo at 1 mg/kg turned out to be 41.2%.
With `Fc1cccnc1COc1cc(-c2cncnc2)c2c(n1)CCC2` [Example 26, 2-[(3-Fluoropyridin-2-yl)methoxy]-4-(pyrimidin-5-yl)-6,7-dihydro-5H-cyclopenta[b]pyridine], the figures for the inhibition in vivo at 3 mg/kg with male Slc:ICR mice [1] (setting [3]) and in the assay with male Slc:ICR mice [1] (setting [4]) were 60.5% and 57.3%, respectively. Moreover, the IC50 against human mGluR5 was determined as 73.6 nM. Also, the inhibition in vivo at 1 mg/kg in the assay on male Slc:ICR mice [2] (1% formalin) worked out at 71.9%.
For the compound `N#Cc1ccc(-c2cc(OCc3ccc(F)cn3)nc3c2CCC3)cn1` [Example 9, 5-{2-[(5-Fluoropyridin-2-yl)methoxy]-6,7-dihydro-5H-cyclopenta[b]pyridin-4-yl}pyridine-2-carbonitrile], the inhibition in vivo at 1 mg/kg in the assay with male Slc:ICR mice [1] (setting [3]) worked out at 23.9%; with male Slc:ICR mice [1] (setting [4]), 36.3%; in the assay on male Slc:ICR mice [2] (5% formalin), 39.1%.
Regarding `N#Cc1ncc(-c2cc(OCc3ccccn3)nc3c2CCCC3)cn1` [Example 173, 5-[2-(Pyridin-2-ylmethoxy)-5,6,7,8-tetrahydroquinolin-4-yl]pyrimidine-2-carbonitrile hydrochloride], the inhibition in vivo at 3 mg/kg with male Slc:ICR mice [1] (setting [3]) was 63.3%; in the assay on male Slc:ICR mice [1] (setting [4]) it was 52.6%. This compound also gave an IC50 against human mGluR5 of 161 nM. In addition, the inhibition in vivo at 1 mg/kg in the assay with male Slc:ICR mice [2] (5% formalin) came to 65.4%.
In turn, `Fc1cccnc1COc1cc(-c2cccnn2)c2c(n1)CCC2` [Example 272, 2-[(3-Fluoropyridin-2-yl)methoxy]-4-(pyridazin-3-yl)-6,7-dihydro-5H-cyclopenta[b]pyridine] gave an IC50 against human mGluR5 of 117 nM. Also, the inhibition in vivo at 1 mg/kg with male Slc:ICR mice [2] (5% formalin) worked out at 40.5%.
With `Fc1cnc(COc2cc(-c3cncnc3)c3c(n2)CCCC3)c(F)c1` [Example 277, 2-[(3,5-Difluoropyridin-2-yl)methoxy]-4-(pyrimidin-5-yl)-5,6,7,8-tetrahydroquinoline], the inhibition in vivo at 3 mg/kg was determined as 40.4% in the assay with male Slc:ICR mice [1] (setting [3]) and 24.8% with male Slc:ICR mice [1] (setting [4]). In the assay with male Slc:ICR mice [2] (5% formalin), the inhibition in vivo at 1 mg/kg turned out to be 60.9%.
On human mGluR5, `Fc1ccc(COc2cc(-c3cncnc3)c3c(n2)CCC3)cc1` [Example 257, 2-[(4-Fluorobenzyl)oxy]-4-(pyrimidin-5-yl)-6,7-dihydro-5H-cyclopenta[b]pyridine] showed an IC50 of 63.5 nM. Moreover, in the assay on male Slc:ICR mice [2] (5% formalin), the inhibition in vivo at 1 mg/kg turned out to be 51.1%.
For the compound `N#Cc1ncccc1-c1cc(OCc2ccccn2)nc2c1CCC2` [Example 3, 3-[2-(Pyridin-2-ylmethoxy)-6,7-dihydro-5H-cyclopenta[b]pyridin-4-yl]pyridine-2-carbonitrile], on human mGluR5, half-maximal inhibition (IC50) required 12 nM. Also, the inhibition in vivo at 1 mg/kg in the assay on male Slc:ICR mice [2] (1% formalin) turned out to be 25.1%.
The corresponding values for `OCc1ncc(-c2cc(OCc3ccccn3)nc3c2CCCC3)s1` [Example 226, {5-[2-(Pyridin-2-ylmethoxy)-5,6,7,8-tetrahydroquinolin-4-yl]-1,3-thiazol-2-yl}methanol hydrochloride] are 52.1 nM and 26.8%.
On to `Cc1cncc(-c2cc(OCc3ncccc3F)nc3c2CCCC3)n1` [Example 214, 2-[(3-Fluoropyridin-2-yl)methoxy]-4-(6-methylpyrazin-2-yl)-5,6,7,8-tetrahydroquinoline], for which the figures for the inhibition in vivo at 3 mg/kg with male Slc:ICR mice [1] (setting [3]) and in the assay with male Slc:ICR mice [1] (setting [4]) were 44.2% and 25.3%, respectively. The compound further had an IC50 at human mGluR5 of 131 nM. Further, in the assay on male Slc:ICR mice [2] (5% formalin), the inhibition in vivo at 1 mg/kg turned out to be 55.3%.
Consider `Cc1ncc(-c2cc(OCc3ccc(F)cc3)nc3c2CCC3)cn1` [Example 260, 2-[(4-Fluorobenzyl)oxy]-4-(2-methylpyrimidin-5-yl)-6,7-dihydro-5H-cyclopenta[b]pyridine], for which, on human mGluR5, the IC50 worked out at 79 nM. Further, the inhibition in vivo at 1 mg/kg in the assay on male Slc:ICR mice [2] (5% formalin) turned out to be 42.9%.
For the compound `Cc1ncc(-c2cc(OCc3ncccc3F)nc3c2CCCC3)cn1` [Example 187, 2-[(3-Fluoropyridin-2-yl)methoxy]-4-(2-methylpyrimidin-5-yl)-5,6,7,8-tetrahydroquinoline], the inhibition in vivo at 1 mg/kg came to 22.9% in the assay on male Slc:ICR mice [1] (setting [3]), 51.6% with male Slc:ICR mice [1] (setting [4]) and 59.4% in the assay with male Slc:ICR mice [2] (5% formalin). In addition, the IC50 on human mGluR5 is 36 nM.
At human mGluR5, `c1ccc(COc2cc(-c3cncnc3)c3c(n2)CCCCC3)nc1` [Example 233, 2-(Pyridin-2-ylmethoxy)-4-(pyrimidin-5-yl)-6,7,8,9-tetrahydro-5H-cyclohepta[b]pyridine hydrochloride] came in with an IC50 of 10.9 nM. Moreover, the inhibition in vivo at 1 mg/kg with male Slc:ICR mice [2] (1% formalin) came to 59.5%.
